Reference: PubChem BioAssay (NCI)
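Protocol summary: plate cells (96-well), add compound at 5 concentrations, incubate 48 h, interpolate endpoints linearly. GI50 marks 50% less growth. TGI marks complete inhibition of growth.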

Legend:
Assay in all cases: inhibition of tumour cell growth, NCI panel, 48 h
ACHN renal = system: ACHN renal
SF-295 CNS = system: SF-295 CNS
NCI-H23 lung = system: NCI-H23 lung
SF-268 CNS = system: SF-268 CNS
NCI-H522 lung = system: NCI-H522 lung
OVCAR-3 ovarian = system: OVCAR-3 ovarian
MDA-MB-231 breast = system: MDA-MB-231 breast
NCI-H460 lung = system: NCI-H460 lung
A549 NSCLC = system: A549 NSCLC
HT29 colon = system: HT29 colon
OVCAR-4 ovarian = system: OVCAR-4 ovarian
OVCAR-5 ovarian = system: OVCAR-5 ovarian
DU-145 prostate = system: DU-145 prostate
MALME-3M melanoma = system: MALME-3M melanoma
IGROV1 ovarian = system: IGROV1 ovarian
EKVX NSCLC = system: EKVX NSCLC
LOX IMVI melanoma = system: LOX IMVI melanoma
PC-3 prostate = system: PC-3 prostate
OVCAR-8 ovarian = system: OVCAR-8 ovarian
NCI-H226 lung = system: NCI-H226 lung
SN12C renal = system: SN12C renal
K-562 leukemia = system: K-562 leukemia
UACC-257 melanoma = system: UACC-257 melanoma
HCT-116 colon = system: HCT-116 colon
T-47D breast = system: T-47D breast
786-0 renal = system: 786-0 renal
U251 CNS = system: U251 CNS
KM12 colon = system: KM12 colon
MDA-MB-435 = system: MDA-MB-435

SMILES: CCCCCCCC(=O)Nc1nc2[nH]c(CN3CCN(Cc4cccc(I)c4)CC3)c(CN3CCN(Cc4cccc(I)c4)CC3)c2c(=O)[nH]1
- GI50 (ACHN renal): 892 nM
- TGI (ACHN renal): 1610 nM
- GI50 (SF-295 CNS): 843 nM
- TGI (SF-295 CNS): 1550 nM
- GI50 (NCI-H23 lung): 920 nM
- TGI (NCI-H23 lung): 1860 nM
- GI50 (SF-268 CNS): 829 nM
- TGI (SF-268 CNS): 1650 nM
- GI50 (NCI-H522 lung): 901 nM
- TGI (NCI-H522 lung): 1950 nM
- GI50 (OVCAR-3 ovarian): 879 nM
- TGI (OVCAR-3 ovarian): 1620 nM
- GI50 (MDA-MB-231 breast): 875 nM
- TGI (MDA-MB-231 breast): 1650 nM
- GI50 (NCI-H460 lung): 925 nM
- TGI (NCI-H460 lung): 1760 nM
- GI50 (A549 NSCLC): 989 nM
- TGI (A549 NSCLC): 1910 nM
- GI50 (HT29 colon): 998 nM
- TGI (HT29 colon): 2130 nM
- GI50 (OVCAR-4 ovarian): 841 nM
- TGI (OVCAR-4 ovarian): 1620 nM
- GI50 (OVCAR-5 ovarian): 852 nM
- TGI (OVCAR-5 ovarian): 1570 nM
- GI50 (DU-145 prostate): 913 nM
- TGI (DU-145 prostate): 1730 nM
- GI50 (MALME-3M melanoma): 866 nM
- TGI (MALME-3M melanoma): 1700 nM
- GI50 (IGROV1 ovarian): 836 nM
- TGI (IGROV1 ovarian): 1670 nM
- GI50 (EKVX NSCLC): 835 nM
- TGI (EKVX NSCLC): 1670 nM
- GI50 (LOX IMVI melanoma): 762 nM
- TGI (LOX IMVI melanoma): 1440 nM
- GI50 (PC-3 prostate): 837 nM
- TGI (PC-3 prostate): 1630 nM
- GI50 (OVCAR-8 ovarian): 1040 nM
- TGI (OVCAR-8 ovarian): 2250 nM
- GI50 (NCI-H226 lung): 1160 nM
- TGI (NCI-H226 lung): 2590 nM
- GI50 (SN12C renal): 916 nM
- TGI (SN12C renal): 1750 nM
- GI50 (K-562 leukemia): 455 nM
- TGI (K-562 leukemia): 10800 nM
- GI50 (UACC-257 melanoma): 1140 nM
- TGI (UACC-257 melanoma): 2440 nM
- GI50 (HCT-116 colon): 848 nM
- TGI (HCT-116 colon): 1590 nM
- GI50 (T-47D breast): 993 nM
- TGI (T-47D breast): 2180 nM
- GI50 (786-0 renal): 793 nM
- TGI (786-0 renal): 1500 nM
- GI50 (U251 CNS): 923 nM
- TGI (U251 CNS): 1800 nM
- GI50 (KM12 colon): 906 nM
- TGI (KM12 colon): 1750 nM
- GI50 (MDA-MB-435): 823 nM
- TGI (MDA-MB-435): 1550 nM
